Experimental data reported in ChEMBL document CHEMBL1154267, “Imidazo[1,5-a][1,2,4]-triazolo[1,5-d][1,4]benzodiazepines as potent and highly selective GABAA alpha5 inverse agonists with potential for the treatment of cognitive dysfunction” (Bioorg Med Chem Lett, 2009).
Converted amounts (≈) assume the structure as drawn. The source made the active and inactive calls. No cut-off for these calls is given here.

Assays:
[1] = Selectivity ratio of Ki for GABAA alpha-2-beta-3-gamma-2 receptor to Ki for GABAA alpha-5-beta-3-gamma-2 receptor
[2] = species: Rattus norvegicus; assay: Toxicity in Lister hooded rat assessed as behavioral impairment; type: organism-based; details: in vivo
[3] = Permeability by PAMPA; type: ADME; details: read-out: permeability
[4] = tested on: Rattus norvegicus; assay: Behavioral effect in Lister hooded rat assessed as reversal of Scopolamine-induced impairment of working memory at 1 mg/kg, po administered 30 mins before Scopolamine challenge by delayed match to position test; type: functional, organism-based; design: dose 1 mg/kg
[5] = Half life in rat; type: ADME, organism-based; details: in vivo
[6] = target: GABA-A receptor; alpha-5/beta-3/gamma-2 (Homo sapiens) (UniProt P18507+P28472+P31644); assay: Inverse agonist activity at GABAA alpha-5-beta-3-gamma-2 receptor assessed as modulation of GABA-induced chloride ion flux by electrophysiology assay relative to GABA; type: functional
[7] = tested on: Liver microsomes; assay: Clearance in rat liver microsomes; type: ADME, Microsome
[8] = Selectivity ratio of Ki for GABAA alpha-3-beta-3-gamma-2 receptor to Ki for GABAA alpha-5-beta-3-gamma-2 receptor
[9] = Volume of distribution at steady state in rat; type: ADME, organism-based; details: in vivo, read-out: Vdss
[10] = Ratio of drug level in brain to plasma in rat; type: ADME, organism-based; details: brain and plasma
[11] = Lipophilicity, log D at pH 7.4; type: physicochemical; details: buffer
[12] = Selectivity ratio of Ki for GABAA alpha-1-beta-3-gamma-2 receptor to Ki for GABAA alpha-5-beta-3-gamma-2 receptor
[13] = Solubility of the compound; type: physicochemical
[14] = target: T1, GABA-A receptor; alpha-5/beta-3/gamma-2 (Homo sapiens, UniProt P18507+P28472+P31644); assay: Displacement of [3H]flumazenil from GABAA alpha-5-beta-3-gamma-2 receptor; type: protein-complex assay
T1 sequence (P18507 whole entry): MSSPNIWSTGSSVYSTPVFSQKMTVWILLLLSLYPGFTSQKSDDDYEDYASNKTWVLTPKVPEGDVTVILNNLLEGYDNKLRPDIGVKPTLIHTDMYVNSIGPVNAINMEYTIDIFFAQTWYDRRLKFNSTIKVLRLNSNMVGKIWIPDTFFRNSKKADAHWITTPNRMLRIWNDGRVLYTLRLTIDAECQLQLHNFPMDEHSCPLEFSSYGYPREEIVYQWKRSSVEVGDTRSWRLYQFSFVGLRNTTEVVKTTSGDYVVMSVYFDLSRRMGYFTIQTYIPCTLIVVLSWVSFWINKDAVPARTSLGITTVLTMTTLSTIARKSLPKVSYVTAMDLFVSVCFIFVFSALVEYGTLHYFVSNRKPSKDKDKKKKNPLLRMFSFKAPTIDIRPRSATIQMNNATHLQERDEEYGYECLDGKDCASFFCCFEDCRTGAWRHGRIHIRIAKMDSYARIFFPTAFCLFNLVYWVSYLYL
T1 sequence (P28472 whole entry): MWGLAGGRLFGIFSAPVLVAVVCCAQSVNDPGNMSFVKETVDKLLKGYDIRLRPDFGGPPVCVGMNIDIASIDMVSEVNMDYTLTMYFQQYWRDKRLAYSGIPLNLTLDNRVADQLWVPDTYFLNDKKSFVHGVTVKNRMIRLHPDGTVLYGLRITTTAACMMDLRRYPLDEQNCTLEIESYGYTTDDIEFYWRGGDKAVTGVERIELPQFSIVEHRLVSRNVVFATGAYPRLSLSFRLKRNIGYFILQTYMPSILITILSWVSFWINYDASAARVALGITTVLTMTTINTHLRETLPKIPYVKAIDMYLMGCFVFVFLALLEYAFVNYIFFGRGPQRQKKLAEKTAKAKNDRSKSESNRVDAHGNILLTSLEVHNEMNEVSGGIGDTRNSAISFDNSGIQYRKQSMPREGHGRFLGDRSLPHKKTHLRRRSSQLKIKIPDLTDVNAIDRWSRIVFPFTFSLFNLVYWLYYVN
T1 sequence (P31644 whole entry): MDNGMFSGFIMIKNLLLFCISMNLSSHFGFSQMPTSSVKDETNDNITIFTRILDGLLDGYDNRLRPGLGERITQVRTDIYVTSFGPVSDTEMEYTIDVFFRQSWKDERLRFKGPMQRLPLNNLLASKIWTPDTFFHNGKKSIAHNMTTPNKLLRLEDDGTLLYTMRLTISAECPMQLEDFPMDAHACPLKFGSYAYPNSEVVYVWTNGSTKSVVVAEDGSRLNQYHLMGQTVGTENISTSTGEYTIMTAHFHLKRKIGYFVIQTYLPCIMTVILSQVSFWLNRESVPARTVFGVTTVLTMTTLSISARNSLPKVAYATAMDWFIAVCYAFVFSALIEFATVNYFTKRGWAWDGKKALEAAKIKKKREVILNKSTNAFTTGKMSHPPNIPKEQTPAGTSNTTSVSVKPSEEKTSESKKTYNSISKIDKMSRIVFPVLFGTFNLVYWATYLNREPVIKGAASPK

[15] = Clearance in rat; type: ADME, organism-based; details: in vivo
[16] = Oral bioavailability in rat; type: ADME, organism-based; details: in vivo

Cc1cc(Cc2nc3n(n2)Cc2c(C)ncn2-c2ccc(Cl)cc2-3)on1
Ratio Ki [1]: 251
Activity [2]: Non-toxic
Papp [3]: 3.1 ×10⁻⁶ cm/s
Activity [4]: Active
half-life [5]: 84 min
Efficacy [6]: -18%
CL [7]: 6 mL/min/mg
Ratio Ki [8]: 223
Vd [9]: 1.8 L/kg
Kp [10]: 1
logD [11]: 2.3
Ratio Ki [12]: 466
solubility [13]: 14 µg/mL (≈ 38.2 µM)
Ki [14]: 0.6 nM
clearance [15]: 9.5 mL/min/kg
bioavailability [16]: 44%
